This passage reports IC50 results from patent US8927715B2, “Inhibitors of 11β-hydroxysteroid dehydrogenase type 1” (Vitae Pharmaceuticals, Inc., priority 2006, dated 2015).

The target of this experiment is human 11β-HSD1 (Homo sapiens, UniProt P28845). Kind of experiment: Inhibition of a microsomal preparation of 11β-HSD1, SPA (Biological Test Example 2). On the set-up: expressed in transfected cells; host or cells: CHO cells (microsomes). Conditions: read-out: Biological Test Example 2 (IC50 class). It counts as biochemical. The procedure: All reactions are carried out at room temperature in 96 well clear flexible PET Microbeta plates (PerkinElmer). […] After a 10 minute pre-incubation, 50 μL of enzyme solution containing microsomes isolated from CHO cells overexpressing human 11β-HSD1 (10-20 μg/ml of total protein) is added, and the plates are then incubated for 90 minutes at room temperature. The reaction is stopped by adding 50 μl of the SPA beads suspension containing […] 18β-glycyrrhetinic acid, 5 mg/ml protein A coated YSi SPA beads (GE Healthcare) and 3.3 μg/ml of anti-cortisol antibody (East Coast Biologics) in Superblock buffer (Bio-Rad). The plates are then shaken for 120 minutes at room temperature, and the SPA signal corresponding to [^3H]cortisol is measured on a Microbeta plate reader.
Chain of human 11β-HSD1 (P28845 whole entry): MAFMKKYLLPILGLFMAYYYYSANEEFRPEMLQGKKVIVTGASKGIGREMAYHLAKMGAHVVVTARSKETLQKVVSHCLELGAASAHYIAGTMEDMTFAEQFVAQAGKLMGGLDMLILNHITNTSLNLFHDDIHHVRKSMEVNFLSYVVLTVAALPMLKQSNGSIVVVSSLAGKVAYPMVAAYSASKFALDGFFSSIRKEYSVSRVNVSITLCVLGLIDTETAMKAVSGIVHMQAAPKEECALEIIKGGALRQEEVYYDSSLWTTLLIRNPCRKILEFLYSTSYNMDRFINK
The IC50 is the point on the concentration scale where inhibition reaches its midpoint. On to `CN(C)CCCC(=O)N1Cc2ccccc2C2(CCN(C(=O)NC3C4CC5CC(C4)CC3C5)CC2)C1` (stereo not shown) [Example 113, N-(2-Adamantyl)-2-(4-(dimethylamino)butanoyl)-2,3-dihydro-1H-spiro[isoquinoline-4,4′-piperidine]-1′-carboxamide], for which the IC50 is < 0.05 µM. As to `O=C(NC1C2CC3CC(C2)CC1C3)N1CCC2(CC1)CC(Cc1nnn[nH]1)c1ccccc12` (racemic) [Example 46, (±)-3-((1H-Tetrazol-5-yl)methyl)-N-(2-adamantyl)-2,3-dihydrospiro[indene-1,4′-piperidine]-1′-carboxamide], the IC50 is < 0.05 µM. With `O=C(CC1CC2(CCN(C(=O)NC3C4CC5CC(C4)CC3C5)CC2)c2c(Br)cccc21)NCCN1CCOCC1` (stereo not shown) [Example 120, 7-Bromo-N-(2-adamantyl)-3-(2-(2-morpholinoethylamino)-2-oxoethyl)-2,3-dihydrospiro[indene-1,4′-piperidine]-1′-carboxamide] the figure was < 0.05 µM; with `CC(C)(CC(=O)O)CC(=O)N1Cc2ccccc2C2(CCN(C(=O)NC3C4CC5CC(C4)CC3C5)CC2)C1` (stereo not shown) [Example 98, 5-(1′-(2-Adamantylcarbamoyl)-1H-spiro[isoquinoline-4,4′-piperidine]-2(3H)-yl)-3,3-dimethyl-5-oxopentanoic acid], 0.05 to 1 µM; with “4-(1′-(2-Adamantyloxycarbonyl)-1H-spiro[isoquinoline-4,4′-piperidine]-2(3H)-yl)-4-oxobutanoic acid [Example 94]”, < 0.05 µM. With `CS(=O)(=O)NC(=O)CC1CC2(CCN(C(=O)NC3C4CC5CC(C4)CC3C5)CC2)c2c(Br)cccc21` (racemic) [Example 70, (±)-7-Bromo-N-(2-adamantyl)-3-(2-(methylsulfonamido)-2-oxoethyl)-2,3-dihydrospiro[indene-1,4′-piperidine]-1′-carboxamide] the figure was < 0.05 µM; with `O=C(NC1C2CC3CC(C2)CC1C3)N1CCC2(CC1)NCc1ccccc12` (stereo not shown) [Example 87, N-(2-Adamantyl)spiro[isoindoline-1,4′-piperidine]-1′-carboxamide], < 0.05 µM; with `CC(C)(CC(=O)N1Cc2ccccc2C2(CCN(C(=O)NC3C4CC5CC(C4)CC3C5)CC2)C1)C(=O)O` (stereo not shown) [Example 97, 4-(1′-(2-Adamantylcarbamoyl)-1H-spiro[isoquinoline-4,4′-piperidine]-2(3H)-yl)-2,2-dimethyl-4-oxobutanoic acid], < 0.05 µM. With `CN1C(C)(C)c2cccc(Cl)c2C12CCN(C(=O)NC1C3CC4CC(C3)CC1C4)CC2` (stereo not shown) [Example 105, 7-Chloro-N-(2-adamantyl)-2,3,3-trimethylspiro[isoindoline-1,4′-piperidine]-1′-carboxamide] the figure was < 0.05 µM; with `COc1cc(CNC(=O)C23CC4CC(C2)C(OC(=O)N2CCC5(CC2)CC(CC(=O)O)c2ccccc25)C(C4)C3)cc(OC)c1` (stereo not shown) [Example 72, 2-(1′-((1-(3,5-Dimethoxybenzylcarbamoyl)-4-adamantyloxy)carbonyl)-2,3-dihydrospiro[indene-1,4′-piperidine]-3-yl)acetic acid], 0.05 to 1 µM. Take `O=C(O)CC1CC2(CCN(C(=O)OC3C4CC5CC3CC(C(=O)NCc3ccccc3)(C5)C4)CC2)c2ccccc21` (stereo not shown) [Example 89, 2-(1′-((1-(Benzylcarbamoyl)-4-adamantyloxy)carbonyl)-2,3-dihydrospiro[indene-1,4′-piperidine]-3-yl)acetic acid]: the IC50 was 0.05 to 1 µM. With `CN(C)CCCNC(=O)CC1CC2(CCN(C(=O)NC3C4CC5CC(C4)CC3C5)CC2)c2c(Br)cccc21` (stereo not shown) [Example 117, 7-Bromo-N-(2-adamantyl)-3-(2-(3-(dimethylamino)propylamino)-2-oxoethyl)-2,3-dihydrospiro[indene-1,4′-piperidine]-1′-carboxamide] the figure was < 0.05 µM; with `O=C(NC1C2CC3CC(C2)CC1C3)N1CCC2(CC1)CC(CCO)c1cccc(Br)c12` (racemic) [Example 122, (±)-7-Bromo-N-(2-adamantyl)-3-(2-hydroxyethyl)-2,3-dihydrospiro[indene-1,4′-piperidine]-1′-carboxamide], < 0.05 µM.
